Results reported in PubChem BioAssay AID328 (DTP/NCI, 2004).
Values joined by “and” are separate entries in the source; they are usually repeats but may differ in a detail not shown here. Equal values may be shown once. Inconclusive results and toxic doses are left out.

System: BDF1 mice, P388 leukemia ip, median survival T/C
Experiment: NCI In Vivo Anticancer Drug Screen. Data for tumor model P388 Leukemia (intraperitoneal) in B6D2F1 (BDF1) mice
Settings: endpoint: median survival time, higher = longer survival
How it was run: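 Transplantable tumour in mice; compound vs vehicle dosing; survival scored; ratio of treated to control reported.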

[1] = dose: 100.0 mg/kg/injection, schedule: Q01DX001 (ip), vehicle: saline
[2] = dose: 100.0 mg/kg/injection, schedule: Q01DX009 (ip), vehicle: Klucel (hydroxypropylcellulose) (HPC)
[3] = dose: 200.0 mg/kg/injection, schedule: Q01DX009 (ip), vehicle: Klucel (hydroxypropylcellulose) (HPC)
[4] = dose: 400.0 mg/kg/injection, schedule: Q01DX009 (ip), vehicle: Klucel (hydroxypropylcellulose) (HPC)
[5] = dose: 100.0 mg/kg/injection, schedule: Q01DX009 (ip), vehicle: saline with Tween-80
[6] = dose: 200.0 mg/kg/injection, schedule: Q04DX003 (ip), vehicle: saline sonified
[7] = dose: 200.0 mg/kg/injection, schedule: Q01DX009 (ip), vehicle: saline
[8] = dose: 200.0 mg/kg/injection, schedule: Q04DX003 (ip), vehicle: Klucel (hydroxypropylcellulose) (HPC)
[9] = dose: 400.0 mg/kg/injection, schedule: Q01DX009 (ip), vehicle: saline

**Q.** CC(C)(C)c1ccc(OCc2cnc[nH]2)cc1 was tested. Which T/C [1] did it give?
**A.** 113 % of control

**Q.** Which T/C (dose: 4.0 mg/kg/injection, schedule: Q01DX010 (ip), vehicle: carboxymethylcellulose (CMC)) does the source give for Cc1cc(C)c2cc3cccc[n+]3cc2c1 here?
**A.** 115 % of control

**Q.** For O=[N+]([O-])c1cccc(/C=C/c2ccccc2)c1, which T/C (dose: 100.0 mg/kg/injection, schedule: Q01DX001 (ip), vehicle: Klucel (hydroxypropylcellulose) (HPC)) is on record?
**A.** 100 % of control

**Q.** And the T/C [2]?
**A.** 95 % of control

**Q.** What about the T/C (dose: 200.0 mg/kg/injection, schedule: Q01DX001 (ip), vehicle: Klucel (hydroxypropylcellulose) (HPC)) of the same compound?
**A.** 95 % of control

**Q.** And the T/C [3]?
**A.** 95 % of control

**Q.** What about the T/C (dose: 400.0 mg/kg/injection, schedule: Q01DX001 (ip), vehicle: Klucel (hydroxypropylcellulose) (HPC)) of the same compound?
**A.** 90 % of control

**Q.** And the T/C [4]?
**A.** 90 % of control

**Q.** With CCOC(=O)c1ccccc1S(=O)(=O)c1ccccc1C(=O)OCC as the compound, how does the T/C (dose: 50.0 mg/kg/injection, schedule: Q01DX009 (ip), vehicle: saline with Tween-80) read?
**A.** 106 % of control

**Q.** And the T/C [5]?
**A.** 100 % of control

**Q.** And the T/C (dose: 200.0 mg/kg/injection, schedule: Q01DX009 (ip), vehicle: saline with Tween-80)?
**A.** 112 % of control

**Q.** With Cc1c(O)c([N+](=O)[O-])cc2c1OCOC2 as the compound, how does the T/C [2] read?
**A.** 95 % of control

**Q.** And the T/C [3]?
**A.** 104 % of control

**Q.** And the T/C [4]?
**A.** 95 % of control

**Q.** With CCOC(=O)C1CCCN1C(=O)c1c2nc3c(C(=O)N4CCCC4C(=O)OCC)ccc(C)c3oc-2c(C)c(=O)c1N (centres undefined) as the compound, how does the T/C (dose: 100.0 mg/kg/injection, schedule: Q04DX002 (ip), vehicle: saline with Tween-80) read?
**A.** 90 % of control

**Q.** What about the T/C (dose: 200.0 mg/kg/injection, schedule: Q04DX002 (ip), vehicle: saline with Tween-80) of the same compound?
**A.** 101 % of control

**Q.** What about the T/C (dose: 400.0 mg/kg/injection, schedule: Q04DX002 (ip), vehicle: saline with Tween-80) of the same compound?
**A.** 90 % of control

**Q.** What does the source list for CC(=O)OCC(=O)[C@@]12OC(C)(C)O[C@@H]1C[C@H]1[C@@H]3CC(C=O)=C4C=C(OCCCl)CC[C@]4(C)[C@@]3(F)[C@@H](O)C[C@@]12C?
**A.** T/C (dose: 0.39 mg/kg/injection, schedule: Q01DX009 (ip), vehicle: Klucel (hydroxypropylcellulose) (HPC)): 95 % of control; T/C (dose: 0.78 mg/kg/injection, schedule: Q01DX009 (ip), vehicle: Klucel (hydroxypropylcellulose) (HPC)): 107 % of control and 113 % of control; T/C (dose: 1.56 mg/kg/injection, schedule: Q01DX009 (ip), vehicle: Klucel (hydroxypropylcellulose) (HPC)): 106 % of control and 113 % of control; T/C (dose: 2.3 mg/kg/injection, schedule: Q04DX003 (ip), vehicle: Klucel (hydroxypropylcellulose) (HPC)): 104 % of control; T/C (dose: 3.12 mg/kg/injection, schedule: Q01DX009 (ip), vehicle: Klucel (hydroxypropylcellulose) (HPC)): 100 % of control; T/C (dose: 3.13 mg/kg/injection, schedule: Q01DX009 (ip), vehicle: Klucel (hydroxypropylcellulose) (HPC)): 105 % of control; T/C (dose: 4.6 mg/kg/injection, schedule: Q04DX003 (ip), vehicle: Klucel (hydroxypropylcellulose) (HPC)): 109 % of control; T/C (dose: 6.25 mg/kg/injection, schedule: Q01DX009 (ip), vehicle: Klucel (hydroxypropylcellulose) (HPC)): 122 % of control; T/C (dose: 9.3 mg/kg/injection, schedule: Q04DX003 (ip), vehicle: Klucel (hydroxypropylcellulose) (HPC)): 100 % of control; T/C (dose: 12.5 mg/kg/injection, schedule: Q01DX009 (ip), vehicle: Klucel (hydroxypropylcellulose) (HPC)): 124 % of control; T/C (dose: 13.0 mg/kg/injection, schedule: Q04DX003 (ip), vehicle: Klucel (hydroxypropylcellulose) (HPC)): 115 % of control; T/C (dose: 25.0 mg/kg/injection, schedule: Q04DX003 (ip), vehicle: saline with Tween-80): 115 % of control; T/C (dose: 30.0 mg/kg/injection, schedule: Q04DX003 (ip), vehicle: Klucel (hydroxypropylcellulose) (HPC)): 115 % of control; T/C (dose: 45.0 mg/kg/injection, schedule: Q04DX003 (ip), vehicle: Klucel (hydroxypropylcellulose) (HPC)): 104 % of control; T/C (dose: 50.0 mg/kg/injection, schedule: Q04DX003 (ip), vehicle: saline with Tween-80): 114 % of control; T/C (dose: 70.0 mg/kg/injection, schedule: Q04DX003 (ip), vehicle: Klucel (hydroxypropylcellulose) (HPC)): 108 % of control; T/C (dose: 100.0 mg/kg/injection, schedule: Q04DX003 (ip), vehicle: saline with Tween-80): 124 % of control; T/C (dose: 105.0 mg/kg/injection, schedule: Q04DX003 (ip), vehicle: Klucel (hydroxypropylcellulose) (HPC)): 113 % of control; T/C (dose: 200.0 mg/kg/injection, schedule: Q04DX003 (ip), vehicle: saline with Tween-80): 118 % of control; T/C (dose: 400.0 mg/kg/injection, schedule: Q04DX003 (ip), vehicle: saline with Tween-80): 100 % of control

**Q.** What does the source list for CC1CCC2(C(=O)O)CCC3(C)C(=CCC4C5(C)CCC(O)C(C)(C)C5CCC43C)C2C1C (centres undefined)?
**A.** T/C (dose: 100.0 mg/kg/injection, schedule: Q01DX010 (ip), vehicle: acetone): 120 % of control; T/C (dose: 200.0 mg/kg/injection, schedule: Q01DX010 (ip), vehicle: acetone): 115 % of control; T/C (dose: 400.0 mg/kg/injection, schedule: Q01DX010 (ip), vehicle: acetone): 120 % of control

**Q.** What does the source list for C/C(CC(C)(C)c1ccccc1)=N/NC(N)=O?
**A.** T/C (dose: 50.0 mg/kg/injection, schedule: Q04DX003 (ip), vehicle: saline sonified): 90 % of control; T/C (dose: 100.0 mg/kg/injection, schedule: Q04DX003 (ip), vehicle: saline sonified): 100 % of control; T/C [6]: 95 % of control

**Q.** With COc1cc2cnc3c4cc5c(cc4ccc3c2cc1OC)OCO5 as the compound, how does the T/C (dose: 20.0 mg/kg/injection, schedule: Q01DX009 (ip), vehicle: saline with Tween-80) read?
**A.** 95 % of control

**Q.** What about the T/C (dose: 40.0 mg/kg/injection, schedule: Q01DX009 (ip), vehicle: saline with Tween-80) of the same compound?
**A.** 105 % of control

**Q.** What about the T/C (dose: 80.0 mg/kg/injection, schedule: Q01DX009 (ip), vehicle: saline with Tween-80) of the same compound?
**A.** 105 % of control

**Q.** What about the T/C (dose: 120.0 mg/kg/injection, schedule: Q01DX009 (ip), vehicle: saline with Tween-80) of the same compound?
**A.** 95 % of control

**Q.** And the T/C (dose: 240.0 mg/kg/injection, schedule: Q01DX009 (ip), vehicle: saline with Tween-80)?
**A.** 110 % of control

**Q.** For CCOC(=O)CCC(C)(c1ccc(O)cc1)c1ccc(O)cc1, which T/C (dose: 50.0 mg/kg/injection, schedule: Q01DX009 (ip), vehicle: gum acacia) is on record?
**A.** 95 % of control

**Q.** And the T/C (dose: 100.0 mg/kg/injection, schedule: Q01DX009 (ip), vehicle: gum acacia)?
**A.** 108 % of control

**Q.** What about the T/C (dose: 100.0 mg/kg/injection, schedule: Q04DX003 (ip), vehicle: gum acacia) of the same compound?
**A.** 104 % of control

**Q.** What about the T/C (dose: 200.0 mg/kg/injection, schedule: Q01DX009 (ip), vehicle: gum acacia) of the same compound?
**A.** 100 % of control

**Q.** And the T/C (dose: 200.0 mg/kg/injection, schedule: Q04DX003 (ip), vehicle: gum acacia)?
**A.** 104 % of control

**Q.** And the T/C (dose: 400.0 mg/kg/injection, schedule: Q04DX003 (ip), vehicle: gum acacia)?
**A.** 104 % of control

**Q.** O=C(C[n+]1cc(Br)cc2ccccc21)c1ccc(O)c(O)c1 was tested. Which T/C (dose: 50.0 mg/kg/injection, schedule: Q01DX009 (ip), vehicle: Klucel (hydroxypropylcellulose) (HPC)) did it give?
**A.** 95 % of control

**Q.** And the T/C (dose: 176.0 mg/kg/injection, schedule: Q04DX003 (ip), vehicle: saline sonified)?
**A.** 118 % of control

**Q.** What about the T/C [7] of the same compound?
**A.** 170 % of control

**Q.** And the T/C [8]?
**A.** 110 % of control

**Q.** What about the T/C [6] of the same compound?
**A.** 122 % of control

**Q.** What about the T/C (dose: 264.0 mg/kg/injection, schedule: Q01DX009 (ip), vehicle: saline with Tween-80) of the same compound?
**A.** 113 % of control

**Q.** What about the T/C [4] of the same compound?
**A.** 115 % of control

**Q.** What about the T/C [9] of the same compound?
**A.** 180 % of control

**Q.** What about the T/C (dose: 400.0 mg/kg/injection, schedule: Q04DX003 (ip), vehicle: saline sonified) of the same compound?
**A.** 118 % of control

**Q.** Which results are given for COc1ccc2nc(C)c(COC(C)=O)c(Cl)c2c1?
**A.** T/C (dose: 50.0 mg/kg/injection, schedule: Q01DX009 (ip), vehicle: saline): 104 % of control; T/C (dose: 100.0 mg/kg/injection, schedule: Q04DX003 (ip), vehicle: saline): 104 % of control; T/C [7]: 104 % of control; T/C (dose: 200.0 mg/kg/injection, schedule: Q04DX003 (ip), vehicle: saline): 105 % of control; T/C [9]: 101 % of control; T/C (dose: 400.0 mg/kg/injection, schedule: Q04DX003 (ip), vehicle: saline): 90 % of control

**Q.** With CCCCCCCCCCCCCCCC(=O)N(CCC#N)CCC#N as the compound, how does the T/C (dose: 66.0 mg/kg/injection, schedule: Q01DX009 (ip), vehicle: saline with Tween-80) read?
**A.** 91 % of control

**Q.** What about the T/C [5] of the same compound?
**A.** 91 % of control

**Q.** What about the T/C (dose: 150.0 mg/kg/injection, schedule: Q01DX009 (ip), vehicle: saline with Tween-80) of the same compound?
**A.** 108 % of control

**Q.** Which results are given for O=S1(=O)CCNNCC1?
**A.** T/C (dose: 25.0 mg/kg/injection, schedule: Q01DX001 (ip), vehicle: saline): 110 % of control; T/C (dose: 50.0 mg/kg/injection, schedule: Q01DX001 (ip), vehicle: saline): 105 % of control; T/C [1]: 120 % of control; T/C (dose: 200.0 mg/kg/injection, schedule: Q01DX001 (ip), vehicle: saline): 110 % of control

**Q.** CC(C)(C)C1CCC(O)C(Cl)C1 (centres undefined) was tested. Which T/C (dose: 50.0 mg/kg/injection, schedule: Q04DX003 (ip), vehicle: Klucel (hydroxypropylcellulose) (HPC)) did it give?
**A.** 95 % of control

**Q.** And the T/C (dose: 100.0 mg/kg/injection, schedule: Q04DX003 (ip), vehicle: Klucel (hydroxypropylcellulose) (HPC))?
**A.** 109 % of control

**Q.** What about the T/C [8] of the same compound?
**A.** 109 % of control
